What was measured:
Type in all cases: in vivo
[1] = test system: Sweet Potato Whitefly (Bemisia tabaci, BEMITA); assay: Bioassay 2: Sweet Potato Whitefly, spray on cotton seedlings at crawler emergence, nymphs counted 7-9 days after treatment; settings: AI alone 1 (10-5) % w/v
Description: (§1) Stock solutions were prepared with Formula One as well as for each of the active ingredients individually. Test solutions were prepared from the stock solutions. Test solutions were prepared containing Formula One, the individual active ingredients, and mixtures of Formula One with each of the active ingredients. The test solutions for Formula One and the individual active ingredients were prepared by adding 500 μL of stock solution to a 25 mL glass vial, then adding 500 μL of acetone, followed by the addition of 9 mL water with 0.025% Tween®) 20 to create a 0.001% (w/v) solution. The test solutions containing mixtures of Formula One and the individual active ingredients were prepared by adding 500 μL of the active ingredient stock solution to a 25 mL glass vial, followed by 500 μL of the Formula One stock solution, then by the addition of 9 mL water with 0.025% Tween®) 20 to create a test solution containing 0.001% (w/v) Formula One and 0.001% (w/v) of the active ingredient. Each test solution was serially diluted to create desired doses of test solutions (0.001% (w/v), 0.0001% (w/v), 0.00001% (w/v), 0.000001% (w/v), 0.0000001% (w/v), and 0.00000001% (w/v)).
(§2) The test solutions were tested against SPW using the following procedure: Cotton seedlings grown in 3-inch pots, pruned so that only one true leaf remained, were used as test substrate. Adult B. tabaci were allowed to colonize the cotton plants and lay eggs for 24 hours after which all adults were removed from the plants using compressed air. Plants were monitored for egg development and, when crawler emergence was underway (>25% emergence based on visual examination using a microscope), the plants were sprayed using the test solutions and methods described above for green peach aphids (GPA). Treated plants were held in a holding room at approximately 25° C. and ambient relative humidity (RH) prior to grading. Evaluation was conducted by counting the number of developed 2-3 instar nymphs per plant under a microscope 7-9 days after treatment. Percent control was measured using Abbott's correction formula (W. S. Abbott, J. Econ. Entomol. 18 (1925), pp. 265-267) as follows:
where X=No. of live nymphs on solvent check plants and Y=No. of live nymphs on treated plants. In Table B2 the “Expected % Control” was calculated using the method described in Colby S. R., Weeds, 1967, 15, 20-22. Bioassay 3: Western Flower Thrips (Frankliniella occidentalis, FRANOC) (“WFT”).

[2] = test system: Western Tarnished Plant Bug (Lygus hesperus, LYGUHE); assay: Bioassay 4: Western Tarnished Plant Bug, soaked green bean segments, living nymphs 3 days after application
Description: where X=No. of live nymphs on solvent check leaf discs and Y=No. of live nymphs on treated leaf discs. In Table B3 the “Expected % Control” was calculated using the method described in Colby S. R., Weeds, 1967, 15, 20-22. Bioassay 4: Western Tarnished Plant Bug (Lygus hesperus, LYGUHE) (“WTPB”).
(§3) Stock solutions were prepared with Formula One as well as for each of the active ingredients individually. Test solutions were prepared from the stock solutions. Test solutions were prepared containing Formula One, the individual active ingredients, and mixtures of Formula One with each of the active ingredients. The test solution for Formula One was prepared by adding 500 μL of the stock solution to a 25 mL glass vial, then adding 500 μL of acetone, followed by the addition of 9 mL water with 0.025% Tween®) 20 to create a 0.04% (w/v) solution. The test solutions of the individual active ingredients were prepared by adding 500 μL of stock solution to a 25 mL glass vial, then adding 500 μL of acetone, followed by the addition of 9 mL water with 0.025% Tween®) 20 to create a 0.005% (w/v) solution. The test solutions containing mixtures of Formula One and the individual active ingredients were prepared by adding 500 μL of the active ingredient stock solution to a 25 mL glass vial, followed by 500 μL of the Formula One stock solution, then by the addition of 9 mL water with 0.025% Tween®) 20 to create a test solution containing 0.04% (w/v) Formula One and 0.005% (w/v) of the active ingredient. Each test solution was serially diluted to create desired doses of test solutions (0.005% (w/v), 0.00125% (w/v), 0.0003125% (w/v), 0.000078% (w/v), and 0.0000195% (w/v)). In test solutions containing mixtures of Formula One and the active ingredients, the active ingredients were diluted as described above, but the Concentration of Formula One was held constant (0.04% (w/v)).
The test solutions were tested against WTPB using the following procedure: Fresh green beans were cut into segments approximately 1.5 inches long. Four bean segments were added to each 25 mL vial containing the test solutions and soaked for approximately 15 minutes. After soaking, a single bean fragment was removed and placed into a single well of a 32-well rearing tray (Frontier Agricultural Sciences™), on top of a round filter paper disc. A reference treatment (solvent check) was treated with the diluent only. Each treatment was replicated four times and the test treatments were held at approximately 26° C. and ambient relative humidity (RH) prior to grading. Bean segments were allowed to air dry for ˜30 minutes. Three WTPB nymphs were added to and contained in each well with a clear perforated adhesive lid. The total number of living WTPB nymphs was recorded 3 days after application. Scoring was based off the total number of living nymphs out of all four replicates. Percent control was measured using Abbott's correction formula (W. S. Abbott, J. Econ. Entomol. 18 (1925), pp. 265-267) as follows:
(§4) X=No. of live nymphs on solvent check and Y=No. of live nymphs on treated bean segments. In Table B4 the “Expected % Control” was calculated using the method described in Colby S. R., Weeds, 1967, 15, 20-22. Bioassay 5: Neotropical Brown Stink Bug (Euschistus heros, EUSCHE) (“BSB”).

[3] = test system: Neotropical Brown Stink Bug (Euschistus heros, EUSCHE); assay: whole plant or invertebrate
Description: as §4
as §3, with “The” for “The test solutions of the”, “(0.01%” for “(0.005%”, “0.0025%” for “0.00125%”, “0.000625%” for “0.0003125%”, “0.000156%” for “0.000078%”, “0.000039%” for “0.0000195%”
The test solutions that were tested against BSB were similar to those described above for WTPB. Fresh green beans were cut into segments approximately 1.5 inches long. Four bean segments were added to each test solution and soaked for approximately 15 minutes. After soaking, a single bean fragment was removed and placed into a single well of a 32-well rearing tray (Frontier Agricultural Sciences™), on top of a round filter paper disc. A reference treatment (solvent check) was treated with the diluent only. Each treatment was replicated four times and the test treatments were held at approximately 26° C. and ambient relative humidity (RH) prior to grading. Bean segments were allowed to air dry for ˜30 minutes. Three BSB nymphs were added to and contained in each well with a clear perforated adhesive lid. The total number of living BSB nymphs was recorded 3 days after application. Scoring was based off the total number of living nymphs out of all four replicates. Percent control was measured using Abbott's correction formula (W. S. Abbott, J. Econ. Entomol. 18 (1925), pp. 265-267) as follows:
where X=No. of live nymphs on solvent check and Y=No. of live nymphs on treated bean segments. In Table B5 the “Expected % Control” was calculated using the method described in Colby S. R., Weeds, 1967, 15, 20-22. Bioassay 6: Beet Armyworm (Spodoptera exigua, LAPHEG) (BAW), and Diamondback Moth (Plutella xylostella, PLUTMA) (DBM).

[4] = test system: Sweet Potato Whitefly (Bemisia tabaci, BEMITA); assay: Bioassay 8: Sweet Potato Whitefly, spray on cotton seedlings at crawler emergence, nymphs counted 7-9 days after treatment; settings: AI alone 0.1 (10^-5) Wt %
Description: where X=No. of live aphids on solvent check plants and Y=No. of live aphids on treated plants. In Table B1 the “Expected % Control” was calculated using the method described in Colby S. R., Weeds, 1967, 15, 20-22. Bioassay 8: Sweet Potato Whitefly (Bemisia tabaci, BEMITA) (“SPW”).
as §1, with “0.0000001% (w/v), […] and 0.00000001%” for “0.0000001% (w/v), and 0.00000001%”
as §2
where X=No. of live nymphs on solvent check plants and Y=No. of live nymphs on treated plants. In Table B2 the “Expected % Control” was calculated using the method described in Colby S. R., Weeds, 1967, 15, 20-22. Bioassay 9: Diamondback Moth (Plutella xylostella, PLUTMA) (DBM).

Spinetoram was tested, and the “Average % Control AI” value [1] was 41%, the “Average % Control AI” value ([2]; AI alone 0.005 % w/v) was 0% and the “Average % Control AI” value ([3]; AI alone 0.000625 % w/v) was 8%.

With `CC1(C)C(C=C(Cl)Cl)C1C(=O)OC(C#N)c1ccc(F)c(Oc2ccccc2)c1` (stereo not drawn) [Cyfluthrin] the “Average % Control A1” value [4] was 46.90%.

For `CC(c1ccc(C(F)(F)F)nc1)S(C)(=O)=NC#N` (stereo not drawn) [Sulfoxaflor], the “Average % Control AI” value ([2]; AI alone 0.0003125 % w/v) was 0% and the pest or weed control at 0.0025 % strength ([3]; Euschistus heros, 72 h, AI alone 0.0025 % w/v, read-out: Average % Control AI) was 58%.

— patent US20250338846A1, “COMPOSITIONS HAVING PESTICIDAL UTILITY AND PROCESSES RELATED THERETO” (CORTEVA AGRISCIENCE, LLC, priority 2022, published 2025)
